# Assay results reported in ChEMBL document CHEMBL1139030, “Inhibition of jack bean urease by organobismuth compounds” (Bioorg Med Chem Lett, 2006).
# The source made the active and inactive calls. The calls are words filed in the database; no cut-off is given here.
# Biological target: Urease (Canavalia ensiformis) (UniProt P07374)
# Assay: Inhibitory activity against jack bean urease
# Chain of UniProt P07374 (P07374 whole entry, looked up): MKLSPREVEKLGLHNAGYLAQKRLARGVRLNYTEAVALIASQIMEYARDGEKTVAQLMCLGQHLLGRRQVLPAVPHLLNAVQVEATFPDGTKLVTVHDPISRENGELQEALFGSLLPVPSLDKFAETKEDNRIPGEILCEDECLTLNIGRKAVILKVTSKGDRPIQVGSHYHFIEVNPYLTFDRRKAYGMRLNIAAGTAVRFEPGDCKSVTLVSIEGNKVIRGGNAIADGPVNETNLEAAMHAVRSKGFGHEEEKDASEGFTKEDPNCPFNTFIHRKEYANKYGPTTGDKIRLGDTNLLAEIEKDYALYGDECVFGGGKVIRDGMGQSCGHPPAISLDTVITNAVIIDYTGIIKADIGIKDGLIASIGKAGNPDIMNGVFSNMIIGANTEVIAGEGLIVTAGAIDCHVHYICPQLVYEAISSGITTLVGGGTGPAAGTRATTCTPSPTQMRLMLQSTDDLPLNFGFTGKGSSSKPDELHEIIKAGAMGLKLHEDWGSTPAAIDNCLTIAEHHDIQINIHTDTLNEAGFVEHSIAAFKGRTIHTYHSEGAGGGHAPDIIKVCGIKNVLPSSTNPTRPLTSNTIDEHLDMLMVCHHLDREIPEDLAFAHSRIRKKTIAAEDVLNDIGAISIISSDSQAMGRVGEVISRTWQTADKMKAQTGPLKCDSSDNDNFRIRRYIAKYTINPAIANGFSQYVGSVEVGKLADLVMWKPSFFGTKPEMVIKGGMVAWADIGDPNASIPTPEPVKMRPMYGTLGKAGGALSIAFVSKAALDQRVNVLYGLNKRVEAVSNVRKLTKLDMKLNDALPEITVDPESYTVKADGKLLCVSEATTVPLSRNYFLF
row,Substance,Activity
1,4-[bis(4-cyanophenyl)bismuthanyl]benzonitrile,Active
2,4-[bis(4-cyanophenyl)difluorobismuthanyl]benzonitrile,Active
3,TRIPHENYLBISMUTHINE,Active
4,[sequence],Active
5,"difluorotris(2,4,6-trimethylphenyl)bismuthane",Active
6,difluorotris(4-fluorophenyl)bismuthane,Active
7,difluorotris(4-methylphenyl)bismuthane,Active
8,difluorotris[4-(trifluoromethyl)phenyl]bismuthane,Active
9,ethyl 4-{bis[4-(ethoxycarbonyl)phenyl]bismuthanyl}benzoate,Active
10,ethyl 4-{bis[4-(ethoxycarbonyl)phenyl]difluorobismuthanyl}benzoate,Active
11,trip-tolylbismuthine,Active
12,tris(4-(trifluoromethyl)phenyl)bismuthine,Active
13,tris(4-fluorophenyl)bismuth dichloride,Active
14,tris(4-fluorophenyl)bismuthine,Active
